Read-outs that look alike come from different tables or passages of the source.
Molecular target: T1, human leucocyte elastase (HLE) (Homo sapiens, UniProt P08246)
T1 construct: purchased Calbiochem
T1 sequence (P08246 30-267): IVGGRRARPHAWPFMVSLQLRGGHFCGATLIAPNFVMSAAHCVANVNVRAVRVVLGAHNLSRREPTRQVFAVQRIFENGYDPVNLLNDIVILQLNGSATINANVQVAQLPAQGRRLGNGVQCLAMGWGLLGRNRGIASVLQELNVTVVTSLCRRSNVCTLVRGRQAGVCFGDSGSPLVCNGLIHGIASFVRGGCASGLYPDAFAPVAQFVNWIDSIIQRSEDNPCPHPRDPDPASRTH
Assay: HLE (human leucocyte elastase) inhibition kinetics
Assay type: biochemical
Settings: 37° C., pH 7.4; for kinact/KI: rate of formation of the HLE-inhibitor complex, read-out: "Efficacy" K5 /Ki
From the text: Vs =steady state rate Vz =zero time rate Vo =rate at [I]=0 Km =Michaelis constant for the enzyme substrate pair (independently determined under the same experimental conditions). Full details of the Experimental Protocol are reported in […] et al., Eur. J. Med. Chem. 1992, 27, 875-890.

[1] = Table 2, apparent dissociation constant of HLE-inhibitor complex at steady rate, read-out: Potency Ki^SS
[2] = Table 3, * outside determination limits
[3] = Table 3, * outside determination limits, read-out: "Potency" Ki ^33

Compound | Ki [1] | "Efficacy" K5 /K1 [2] | Ki [3] | kinact/KI (Table 2)
CO[C@H]1C(=O)N2C(C(=O)C(C)(C)C)=C(C)C(OC(=O)c3ccccc3)S(=O)(=O)[C@H]12 (stereo partly drawn) [Compound 2, 2-Benzoyloxy-4-tert-butylcarbonyl-7α-methoxy-3-methyl-3-cephem 1,1-dioxide] | < 0.002 µM | – | – | –
CO[C@H]1C(=O)N2C(C(=O)C(C)(C)C)=C(C)C(OC(=O)c3ccc4ccccc4c3)S(=O)(=O)[C@H]12 (stereo partly drawn) [Compound 11] | – | < 2 M⁻¹ s⁻¹ | – | –
CO[C@H]1C(=O)N2C(C(=O)C(C)(C)C)=C(CSc3nnnn3C)C(OC(=O)c3ccccc3)S(=O)(=O)[C@H]12 (stereo partly drawn) [Compound 19, 2-Benzoyloxy-4-tert-butylcarbonyl-7α-methoxy-3-(1-methyl-1,2,3,4-tetrazol-5-yl)thiomethyl-3-cephem 1,1-dioxide] | – | < 2 M⁻¹ s⁻¹ | – | –
CO[C@H]1C(=O)N2C(C(=O)c3ccccc3)=C(C)C(OC(=O)c3ccccc3)S(=O)(=O)[C@H]12 (stereo partly drawn) [Compound 24, 2-Benzoyloxy-7α-methoxy-3-methyl-4-phenylcarbonyl-3-cephem 1,1-dioxide] | – | 8 M⁻¹ s⁻¹ | – | –
CO[C@H]1C(=O)N2C(C(=O)c3ccccc3)=C(C)C(OC(=O)c3ccc(C(=O)O)cc3)S(=O)(=O)[C@H]12 (stereo partly drawn) [Compound 25, 4-Benzoyl-2-(4-carboxybenzoyl)oxy-7α-methoxy-3-methyl-3-cephem 1,1-dioxide] | – | 29 M⁻¹ s⁻¹ | 34 µM | –
CO[C@H]1C(=O)N2C(C(=O)C(C)(C)C)=C(C)C(OC(=O)c3ccc(CSc4nc(=O)c(O)nn4C)cc3)S(=O)(=O)[C@H]12 (stereo partly drawn) [Compound 38, 4-tert-Butylcarbonyl-2-{4-[(2,5-dihydro-6-hydroxy-2-methyl-5-oxo-1,2,4-triazin-3-yl)thiomethyl]benzoyloxy}-7α-methoxy-3-methyl-3-cephem 1,1-dioxide] | – | < 2 M⁻¹ s⁻¹ | 700 µM | –
CO[C@H]1C(=O)N2C(C(=O)C(C)(C)C)=C(C)C(OC(=O)c3ccc(C(=O)c4ccccc4)cc3)S(=O)(=O)[C@H]12 (stereo partly drawn) [Compound 83, 2-[4-(Benzoyl)benzoyloxy]-4-tert-butylcarbonyl-7α-methoxy-3-methyl-3-cephem 1,1-dioxide] | – | 2 M⁻¹ s⁻¹ | 500 µM | –
CCCCC(CC)C(=O)OC1C(C)=C(C(=O)C(C)(C)C)N2C(=O)[C@H](OC)[C@H]2S1(=O)=O (stereo partly drawn) [Compound 96, 4-tert-Butylcarbonyl-2-(2-ethylhexanoyl)oxy-7α-methoxy-3-methyl-3-cephem 1,1-dioxide] | – | < 2 M⁻¹ s⁻¹ | – | –
CO[C@H]1C(=O)N2C(C(=O)C(C)(C)C)=C(C)CS(=O)(=O)[C@H]12 [FCE 25500, reference compound] | 1.3 µM | – | – | 60 M⁻¹ s⁻¹
CO[C@H]1C(=O)N2C(C(=O)N3CCCC3)=C(CSc3nc(=O)c(O)nn3C)CS(=O)(=O)[C@H]12 [L-659,286, reference compound] | 0.075 µM | – | – | 9200 M⁻¹ s⁻¹

Reference: US5587373A, “2-acyloxycephem derivatives” (Farmitalia Carlo Erba S.r.l., priority 1993, dated 1996)
